According to US10919903B2, “Nitrogen-containing heterocyclic compounds as FXR modulators” (Hepagene Therapeutics (HK) Limited, priority 2016, dated 2021):

Legend:
FXR = target: T1, FXR (Homo sapiens, UniProt Q96RI1); test: FXR Transactivation Assay (GAL4 luciferase reporter, pBIND-FXR in HEK293T); type: cell-based; details: HEK293T cells
T1 construct: expressed in transfected cells; host or cells: HEK293T
T1 sequence (Q96RI1 1-486): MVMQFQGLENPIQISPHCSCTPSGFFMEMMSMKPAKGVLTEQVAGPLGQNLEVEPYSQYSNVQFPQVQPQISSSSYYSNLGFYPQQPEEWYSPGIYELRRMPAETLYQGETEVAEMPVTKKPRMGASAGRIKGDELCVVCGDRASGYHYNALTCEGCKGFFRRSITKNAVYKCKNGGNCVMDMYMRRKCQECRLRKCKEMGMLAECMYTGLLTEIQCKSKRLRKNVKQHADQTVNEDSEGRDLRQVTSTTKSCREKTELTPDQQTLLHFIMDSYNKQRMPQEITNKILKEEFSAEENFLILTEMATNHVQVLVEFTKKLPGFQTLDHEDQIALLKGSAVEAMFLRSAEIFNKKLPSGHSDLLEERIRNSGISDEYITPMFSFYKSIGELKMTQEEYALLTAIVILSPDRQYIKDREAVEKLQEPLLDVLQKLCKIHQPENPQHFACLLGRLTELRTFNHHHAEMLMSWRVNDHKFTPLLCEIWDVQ
Description: FXR Transactivation Assay
pGL4.35 [luc2P/9XGAL4 UAS/Hygro]
Steady-Glo™ Luciferase Assay System
GW4064 as a positive control
(§1) • 1. Hek293T cells were plated at 1.1*10^6/ml into a 100 mm dish. • 2. […] Cells were incubated at 37° C. under 5% CO2 atmosphere. • 3. All of compounds were 3-fold serial diluted from 10 mM stock for 10 doses in DMSO. • 4. Transfer compound dilutions into 384 well assay plates using liquid workstation. • 5. Seed 25 ul HEK293T cells into 384 well assay plate (prepared step 4) at 0.6*10^5/ml. Cells were incubated at 37° C. under 5% CO2 atmosphere overnight. • 6. Add 25 ul steady-Glo™ Luciferase Assay Reagent into each well of 384-well assay plate. • 7. […] Calculate EC50 by fitting % Activity values and log of compound concentrations to nonlinear regression (dose response−variable slope) with Graphpad 5.0. FXR Coactivator Assay Reagents: LanthaScreen™ TR-FRET Farnesoid X Receptor Coactivator Assay GW4064 as a positive control Process: • 1. All of compounds were 3-fold serial diluted from 10 mM stock for 10 doses in DMSO. • 2. Dilute each 100× agonist serial dilution to 2× using Complete Coregulator buffer G. • 3. Transfer 10 μl of each of the 2× agonist serial dilutions to 384 well assay plates. • 4. Add 5 μl of 4×FXR-LBD to 384 well assay plates. • 5. […] Incubate at room temperature protected from light. • 7. […] Calculate EC50 by fitting % Activity values and log of compound concentrations to nonlinear regression (dose response−variable slope) with Graphpad 5.0.

FXR-LBD = target: T2, FXR-LBD (Homo sapiens, UniProt Q96RI1); test: FXR Coactivator Assay (LanthaScreen TR-FRET); type: biochemical
T2 construct: Add 5 μl of 4×FXR-LBD to 384 well assay plates; purchased
T2 sequence (Q96RI1 262-486 limits assumed): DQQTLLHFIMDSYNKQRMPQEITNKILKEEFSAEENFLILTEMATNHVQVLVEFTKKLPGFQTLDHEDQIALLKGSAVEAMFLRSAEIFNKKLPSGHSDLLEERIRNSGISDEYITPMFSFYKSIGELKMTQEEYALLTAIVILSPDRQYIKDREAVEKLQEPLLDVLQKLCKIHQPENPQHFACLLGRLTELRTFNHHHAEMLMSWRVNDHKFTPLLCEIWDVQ
Description: as §1

Compound | EC50 (FXR) | EC50 (FXR-LBD)
CC(C)c1cc(C(=O)O)cc2sc(N3CCN(Cc4c(-c5c(Cl)cccc5Cl)noc4C4CC4)C[C@H]3C)nc12 [VII-01, (R)-2-(4-((5-Cyclopropyl-3-(2,6-dichlorophenyl)isoxazol-4-yl)methyl)-2-methylpiperazin-1-yl)-4-isopropylbenzo[d]thiazole-6-carboxylic acid] | 10 to 100 nM | 10 to 100 nM
COc1cc(C(N)=O)cc2sc(N3CCN(Cc4c(-c5c(Cl)cccc5Cl)noc4C(C)C)CC3)nc12 [VIII-01] | 101 to 400 nM | 10 to 100 nM
